Data published in publication PMC8445441, “Elucidating the mechanism by which synthetic helper peptides sensitize Pseudomonas aeruginosa to multiple antibiotics” (PLoS Pathogens, 2021).
“And” between values parts separate entries of the source, which are not always exact repeats. Equal entries are not always repeated. Where two headings read alike, the source gives them in different places.

Columns and labels:
[1] = system: P. aeruginosa PAK; assay: microbe, parasite or virus in culture; set-up: MICa: MIC of the antibiotic / MICac: MIC of the antibiotic in the combination: unit not given beside the values; settings: for FICI / MICac: MIC of the antibiotic in the combination: strain PAK; for FICI: antibiotic + D-11 (MICb/MICbc 64/4); for MICac: MIC of the antibiotic in the combination: with D-11 at MICbc 4, unit not given
Description: (§1) The MIC tests were performed in triplicate using broth microdilution in accordance with Clinical and Laboratory Standards Institute (CLSI) recommendations (http://iacld.ir/DL/public/CLSI-2018-M100-S28.pdf). Briefly, drugs were two-fold diluted in MHB and mixed with an equal volume of bacterial suspensions containing approximately 1 × 10^6 CFU/mL in 96-well microliter plate. After 18 h incubation at 37 °C, the MIC values were defined as the lowest concentrations of antibiotics with no visible growth of bacteria. […] Otherwise, 1/4 MIC of the peptide was used in the combination. […] If needed, membrane compounds PG, PE, PC, CL or LPS, or membrane stabilizers MgCl2 or CaCl2, or efflux pumps inhibitor PAβN were added to the broth medium to clarify the effect of other substances on the synergy between peptide and antibiotics. All the tests were performed in triplicate.
(§2) The fractional inhibitory concentration (FIC) indices were calculated using the previously described formula FICI = FICa + FICb = MICac/MICa + MICbc/MICb. The FICI was interpreted according to EUCAST [65] as follows: synergistic, FICI≤0.5; additive, 0.5<FICI≤1; indifferent, 1<FICI<2; antagonistic, FICI ≥2. For the FICI calculations, twice the highest concentration tested was used in the cases where the MIC was not reached.

[2] = system: P. aeruginosa NR-31041; assay: microbe, parasite or virus in culture; set-up: MICa: MIC of the antibiotic / MICac: MIC of the antibiotic in the combination: unit not given beside the values; settings: for FICI / MICac: MIC of the antibiotic in the combination: strain NR-31041; for FICI: antibiotic + D-11 (MICb/MICbc 64/4); for MICac: MIC of the antibiotic in the combination: with D-11 at MICbc 4, unit not given
Description: as §1, §2

[3] = system: P. aeruginosa PA14; assay: microbe, parasite or virus in culture; set-up: MICa: MIC of the antibiotic / MICac: MIC of the antibiotic in the combination: unit not given beside the values; settings: for MICac: MIC of the antibiotic in the combination: strain PA14, with D-11 at MICbc 4, unit not given
Description: as §1, §2

[4] = system: P. aeruginosa NR-31040; assay: microbe, parasite or virus in culture; set-up: MICa: MIC of the antibiotic / MICac: MIC of the antibiotic in the combination: unit not given beside the values; settings: strain NR-31040, unit not given; for MICac: MIC of the antibiotic in the combination: with D-11 at MICbc 4
Description: as §1, §2

[5] = system: P. aeruginosa ATCC27853; assay: microbe, parasite or virus in culture; set-up: MICa: MIC of the antibiotic / MICac: MIC of the antibiotic in the combination: unit not given beside the values; settings: for FICI / MICac: MIC of the antibiotic in the combination: strain ATCC27853; for FICI: antibiotic + D-11 (MICb/MICbc 32/4); for MICac: MIC of the antibiotic in the combination: with D-11 at MICbc 4, unit not given
Description: as §1, §2

[6] = system: P. aeruginosa AUMC-Pa-4; assay: microbe, parasite or virus in culture; settings: for MICac: MIC of the antibiotic in the combination: strain AUMC-Pa-4, with D-11 at MICbc 4, unit not given
Description: as §1, §2

[7] = system: P. aeruginosa AUMC-Pa-6; assay: microbe, parasite or virus in culture; settings: for FICI / MICac: MIC of the antibiotic in the combination: strain AUMC-Pa-6; for FICI: antibiotic + D-11 (MICb/MICbc 64/4); for MICac: MIC of the antibiotic in the combination: with D-11 at MICbc 4, unit not given
Description: as §1, §2

[8] = system: P. aeruginosa AUMC-Pa-5; assay: microbe, parasite or virus in culture; settings: strain AUMC-Pa-5; for FICI: antibiotic + D-11 (MICb/MICbc 64/4); for MICac: MIC of the antibiotic in the combination: with D-11 at MICbc 4
Description: as §1, §2

[9] = system: P. aeruginosa AUMC-Pa-3; assay: microbe, parasite or virus in culture; settings: for MICac: MIC of the antibiotic in the combination: with D-11 at MICbc 4, unit not given
Description: as §1, §2

[10] = system: P. aeruginosa AUMC-Pa-2; settings: strain AUMC-Pa-2; antibiotic + D-11 (MICb/MICbc 64/4)
Description: as §1, §2

[11] = system: P. aeruginosa PAO1; assay: microbe, parasite or virus in culture; settings: for MIC: Pseudomonas aeruginosa, PAO1, 18 h
Description: as §1, §2

[12] = system: P. aeruginosa HM-214; settings: strain HM-214; antibiotic + D-11 (MICb/MICbc 128/4)
Description: as §1, §2

[13] = system: P. aeruginosa AUMC-Pa-1; settings: strain AUMC-Pa-1; antibiotic + D-11 (MICb/MICbc 128/4)
Description: as §1, §2

[14] = system: clinical P. aeruginosa isolates; assay: microbe, parasite or virus in culture; settings: Pseudomonas aeruginosa, 18 h
Description: The bacterial strains, primers and plasmids used in this study are listed in S5 Table. […] Bacteria were cultured in LB medium or cation-adjusted Muller-Hinton broth (CA-MHB) at 37 °C with agitation at 220 rpm. All the antibiotics and chemical compounds used in this study were purchased from Sigma-Aldrich.
as §1

[15] = read-out: MICa: the MIC of antibiotics, S3 Table, antibiotic alone, PAO1
[16] = S3 Table, PAO1, antibiotic + 2 μM D-11
[17] = S3 Table, PAO1, antibiotic + 4 μM D-11

Row | SMILES | FICI [1] | MICac: MIC of the antibiotic in the combination [1] | FICI [2] | MICac: MIC of the antibiotic in the combination [2] | MICac: MIC of the antibiotic in the combination [3] | MICac: MIC of the antibiotic in the combination [4] | FICI [5] | MICac: MIC of the antibiotic in the combination [5] | MICac: MIC of the antibiotic in the combination [6] | FICI [7] | MICac: MIC of the antibiotic in the combination [7] | FICI [8] | MICac: MIC of the antibiotic in the combination ([8]; unit not given) | MICac: MIC of the antibiotic in the combination ([9]; strain AUMC-Pa-3) | FICI [10] | MIC [11, 15] [µM] | FICI [11, 16] | FICI [11, 17] | MICac: the MIC for the antibiotic in the combination ([11]; S3 Table, PAO1, with 2 μM D-11) | MICac: the MIC for the antibiotic in the combination ([11]; S3 Table, PAO1, with 4 μM D-11) | other results
1 | CC[C@H]1OC(=O)[C@H](C)[C@@H](O[C@H]2C[C@@](C)(OC)[C@@H](O)[C@H](C)O2)[C@H](C)[C@@H](O[C@@H]2O[C@H](C)C[C@H](N(C)C)[C@H]2O)[C@](C)(O)C[C@@H](C)C(=O)[C@H](C)[C@@H](O)[C@]1(C)O [Erythromycin] | 0.188 | 16 | 0.188 | 16 | 32 | 32 | 0.188 | 8 | 32 | 0.313 | 32 | 0.313 | 32 | 8 | 0.313 | – | – | – | – | – | –
2 | CC1COc2c(N3CCN(C)CC3)c(F)cc3c(=O)c(C(=O)O)cn1c23 (stereo not shown) [Ofloxacin] | 0.313 | 0.5 | 0.313 | 0.5 | 0.5 | 1 | 0.250 | 0.25 | 0.25 | 1.063 | 0.5/0.5 | 2.063 | 2 | 0.25 | 0.563 | 1 | 0.188 | 0.156 | 0.125 µM | 0.03125 µM | MIC ([1]; Pseudomonas aeruginosa, 18 h, read-out: MICa: MIC of the antibiotic): 2 µM; MIC ([2]; Pseudomonas aeruginosa, NR31041, 18 h, read-out: MICa: MIC of the antibiotic): 2 µM; MIC ([3]; Pseudomonas aeruginosa, PA14, 18 h, read-out: MICa: MIC of the antibiotic): 1 µM; MICa: MIC of the antibiotic ([4]; antibiotic alone): 2; MIC ([5]; Pseudomonas aeruginosa, ATCC27853, 18 h, read-out: MICa: MIC of the antibiotic): 2 µM; MIC ([6]; Pseudomonas aeruginosa, AUMCPA4, 18 h, read-out: MICa: MIC of the antibiotic): 1 µM; MIC ([7]; Pseudomonas aeruginosa, AUMCPA6, 18 h, read-out: MICa: MIC of the antibiotic): 0.5 µM; MICa: MIC of the antibiotic ([8]; antibiotic alone, unit not given): 1; MIC ([9]; Pseudomonas aeruginosa, AUMCPA3, 18 h, read-out: MICa: MIC of the antibiotic): 1 µM; FICI ([9]; strain AUMC-Pa-3, antibiotic + D-11 (MICb/MICbc 128/4)): 0.281; FICI [12]: 1.031; FICI [13]: 0.094
3 | CC(=O)NC[C@H]1CN(c2ccc(N3CCOCC3)c(F)c2)C(=O)O1 [Linezolid] | – | – | – | – | – | – | – | – | – | – | – | – | – | – | – | > 128 | 1.063 | 1.125 | >128/>128 μM | >128/>128 μM | MIC ([14]; read-out: Antibiotic sensibility (MIC) of clinical P. aeruginosa isolate AUMC-Pa-1, strain AUMC-Pa-1, antibiotic alone): > 128 µM; MIC ([14]; read-out: Antibiotic sensibility (MIC) of clinical P. aeruginosa isolate AUMC-Pa-2, strain AUMC-Pa-2, antibiotic alone): > 128 µM; MIC ([14]; read-out: Antibiotic sensibility (MIC) of clinical P. aeruginosa isolate AUMC-Pa-3, strain AUMC-Pa-3, antibiotic alone): > 128 µM; MIC ([14]; read-out: Antibiotic sensibility (MIC) of clinical P. aeruginosa isolate AUMC-Pa-4, strain AUMC-Pa-4, antibiotic alone): > 128 µM; MIC ([14]; read-out: Antibiotic sensibility (MIC) of clinical P. aeruginosa isolate AUMC-Pa-5, strain AUMC-Pa-5, antibiotic alone): > 128 µM; MIC ([14]; read-out: Antibiotic sensibility (MIC) of clinical P. aeruginosa isolate AUMC-Pa-6, strain AUMC-Pa-6, antibiotic alone): > 128 µM; MIC ([14]; read-out: Antibiotic sensibility (MIC) of clinical P. aeruginosa isolate HM-214, strain HM-214, antibiotic alone): > 128 µM; MIC ([14]; read-out: Antibiotic sensibility (MIC) of clinical P. aeruginosa isolate NR-31040, strain NR-31040, antibiotic alone): > 128 µM; MIC ([14]; read-out: Antibiotic sensibility (MIC) of clinical P. aeruginosa isolate NR-31041, strain NR-31041, antibiotic alone): > 128 µM
4 | CN(C)C(=O)C(CCN1CCC(O)(c2ccc(Cl)cc2)CC1)(c1ccccc1)c1ccccc1 [Loperamide] | – | – | – | – | – | – | – | – | – | – | – | – | – | – | – | – | – | – | – | – | MIC ([14]; read-out: Antibiotic sensibility (MIC) of clinical P. aeruginosa isolate AUMC-Pa-1): > 128 µM; MIC ([14]; read-out: Antibiotic sensibility (MIC) of clinical P. aeruginosa isolate AUMC-Pa-2): > 128 µM; MIC ([14]; read-out: Antibiotic sensibility (MIC) of clinical P. aeruginosa isolate AUMC-Pa-3): > 128 µM; MIC ([14]; read-out: Antibiotic sensibility (MIC) of clinical P. aeruginosa isolate AUMC-Pa-4): > 128 µM; MIC ([14]; read-out: Antibiotic sensibility (MIC) of clinical P. aeruginosa isolate AUMC-Pa-5): > 128 µM; MIC ([14]; read-out: Antibiotic sensibility (MIC) of clinical P. aeruginosa isolate AUMC-Pa-6): > 128 µM; MIC ([14]; read-out: Antibiotic sensibility (MIC) of clinical P. aeruginosa isolate HM-214): > 128 µM; MIC ([14]; read-out: Antibiotic sensibility (MIC) of clinical P. aeruginosa isolate NR-31040): > 128 µM; MIC ([14]; read-out: Antibiotic sensibility (MIC) of clinical P. aeruginosa isolate NR-31041): > 128 µM; FICI [11]: 1.063 and 1.125; MICac: the MIC for the antibiotic in the combination [11]: >128/>128 μM; MIC ([11]; read-out: MICa: the MIC of antibiotics): > 128 µM
